Several values for one entry are separate records, joined by “and”; a condition that tells them apart may be missing. Identical values can stand only once.
Assays:
[1] = test system: Hela cells; assay: β-Galactosidase activity recovered from cell extracts after lipofectin delivery or translocation (4 hours); type: cell-based
Method: (§1) The quantitative measurement of translocation was carried out by reading the activity of a β-Galactosidase enzyme that was included as part of a fusion protein with the translocation agents. When provided with the appropriate galactoside substrate, the enzyme deglycosylates the substrate leading to the accumulation of dioxetane. During a following incubation in a different buffer, the dioxetane becomes deprotonated and decomposes with emission of light (425 nm) that can be read using a luminometer. This system, therefore, provided a sensitive means of detecting the amount of the β-Galactosidase present in the samples, and ultimately, the amount of fusion protein delivered into the cells.
The experiments were carried out using 8-well chamber slides. 3×10^4 Hela cells were seeded into each well, suplemented with 400 μl RPMI+10% FCS medium and incubated overnight at 37° C. and 5% CO2. The following day, the appropriate dilutions of protein were made into RPMI medium and added to the wells. Both lipofectin delivery and translocation experiments were carried out for 4 hours.
The experiments were carried out on two different days: the first day a negative control β-Galactosidase and the H1.4B-Bgal were tested, and the second day the antennapedia fusion (Antp-βgal) was tested. A lipofectin delivery of β-Galactosidase, provided by Roche, was performed on both days as positive control for delivery into the cells.
(§2) It was decided to start with the amount of each that gave a value close to 6×10^7 rlu, as this is the limit of the equipment's capacity. From that value, three consecutive ⅕ fold dilutions were made in each case.
(§3) Therefore, the original activity of the different proteins was also measured in parallel to the activity recovered after translocation, in order to make sure that all the proteins were standardised to an original maximum activity of around 6×10^7 rlu.
The results after translocation were obtained by reading the β-Galactosidase recovered from the cell extracts and are shown in Tables 6 and 7. […] In any case, the values for the biggest amounts of β-Galactosidase protein are clearly lower than those obtained from the delivery systems.

[2] = β-Galactosidase activity of the protein constructs before delivery (luminometer); type: biochemical; conditions: 80 ng protein; Table 6 (first day)
Method: as §1, §2, §3

Protein activity [2]	Substance	Activity after transfection ([1]; 1.6 ng protein, Table 6 (first day))	Activity after transfection ([1]; 1.6 ng protein, Table 7 (second day))	Activity after transfection ([1]; 8 ng protein, Table 6 (first day))	Activity after transfection ([1]; 8 ng protein, Table 7 (second day))	Activity after transfection ([1]; 40 ng protein, Table 6 (first day))	Activity after transfection ([1]; 40 ng protein, Table 7 (second day))	Activity after transfection ([1]; 640 pg protein, Table 6 (first day))	Activity after transfection ([1]; 3.2 ng protein, Table 6 (first day))	Activity after transfection ([1]; 15 ng protein, Table 6 (first day))	Activity after transfection ([1]; 16 ng protein, Table 6 (first day))	Activity after transfection ([1]; 80 ng protein, Table 6 (first day))
	β-Gal positive control (Roche): β-Galactosidase provided by Roche, delivered with lipofectin reagent as positive control for delivery into the cells	50.353 rlu and 47.212 rlu	40.121 rlu and 33.578 rlu	140.342 rlu and 162.319 rlu	164.745 rlu and 157.913 rlu	635.228 rlu and 675.640 rlu	715.773 rlu and 744.405 rlu					
overload	β-Galactosidase: β-Galactosidase enzyme without translocation agent, negative control							25.076 rlu and 28.710 rlu	29.527 rlu and 35.227 rlu	56.941 rlu	55.164 rlu	242.200 rlu and 298.589 rlu
